{"source": "the supplement of paper PMC10307832", "test_in_all_cases": "relative viability (nuclei count vs DMSO), 5 days (fraction); higher = more cells survive", "key": {"201T": {"tested_on": "201T", "outline": "(§1)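 Relative viability is defined as nuclei in treated wells over nuclei in vehicle wells. Duplicate plates were run and medians reported. Lung cancer cell lines in 1536-well plates were dosed by pin tool one day after seeding, with one drug or with a fixed anchor-drug dose plus five library-drug doses (not always all listed) in √10 steps, and nuclei were counted after 5 days.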"}, "BEN": {"tested_on": "BEN", "outline": "as §1"}, "CAL-12T": {"tested_on": "CAL-12T", "outline": "as §1"}, "HCC-78": {"tested_on": "HCC-78", "outline": "as §1"}, "HOP-62": {"tested_on": "HOP-62", "outline": "as §1"}, "LCLC-97TM1": {"tested_on": "LCLC-97TM1", "outline": "as §1"}, "LOU-NH91": {"tested_on": "LOU-NH91", "outline": "as §1"}, "NCI-H1355": {"tested_on": "NCI-H1355", "outline": "as §1"}, "NCI-H1395": {"tested_on": "NCI-H1395", "outline": "as §1"}, "NCI-H1563": {"tested_on": "NCI-H1563", "outline": "as §1"}, "NCI-H1651": {"tested_on": "NCI-H1651", "outline": "as §1"}, "NCI-H1793": {"tested_on": "NCI-H1793", "outline": "as §1"}}}
{"molecule": "CCNC(=O)c1noc(-c2cc(C(C)C)c(O)cc2O)c1-c1ccc(CN2CCOCC2)cc1", "note": "[Luminespib] + COc1cc2c(Oc3ccc(NC(=O)C4(C(=O)Nc5ccc(F)cc5)CC4)cc3F)ccnc2cc1OCCCN1CCOCC1 [Foretinib] (partner 0.25 µM)", "values": [{"measurement": "relative viability", "setting": "201T; first compound 0.002 µM", "value": 1.06}, {"measurement": "relative viability", "setting": "201T; first compound 0.006325 µM", "value": 1.07}, {"measurement": "relative viability", "setting": "201T; first compound 0.02 µM", "value": 1.08}, {"measurement": "relative viability", "setting": "201T; first compound 0.06325 µM", "value": 0.173}, {"measurement": "relative viability", "setting": "201T; first compound 0.2 µM", "value": 0.159}, {"measurement": "relative viability", "setting": "BEN; first compound 0.002 µM", "value": 0.63}, {"measurement": "relative viability", "setting": "BEN; first compound 0.006325 µM", "value": 0.71}, {"measurement": "relative viability", "setting": "BEN; first compound 0.02 µM", "value": 0.362}, {"measurement": "relative viability", "setting": "BEN; first compound 0.06325 µM", "value": 0.531}, {"measurement": "relative viability", "setting": "BEN; first compound 0.2 µM", "value": 0.222}, {"measurement": "relative viability", "setting": "CAL-12T; first compound 0.002 µM", "value": 1.25}, {"measurement": "relative viability", "setting": "CAL-12T; first compound 0.006325 µM", "value": 1.15}, {"measurement": "relative viability", "setting": "CAL-12T; first compound 0.02 µM", "value": 0.824}, {"measurement": "relative viability", "setting": "CAL-12T; first compound 0.06325 µM", "value": 0.127}, {"measurement": "relative viability", "setting": "CAL-12T; first compound 0.2 µM", "value": 0.128}, {"measurement": "relative viability", "setting": "HCC-78; first compound 0.002 µM", "value": 0.627}, {"measurement": "relative viability", "setting": "HCC-78; first compound 0.006325 µM", "value": 0.593}, {"measurement": "relative viability", "setting": "HCC-78; first compound 0.06325 µM", "value": 0.609}, {"measurement": "relative viability", "setting": "HCC-78; first compound 0.2 µM", "value": 0.598}, {"measurement": "relative viability", "setting": "HOP-62; first compound 0.002 µM", "value": 1.09}, {"measurement": "relative viability", "setting": "HOP-62; first compound 0.006325 µM", "value": 1.11}, {"measurement": "relative viability", "setting": "HOP-62; first compound 0.02 µM", "value": 1.17}, {"measurement": "relative viability", "setting": "HOP-62; first compound 0.06325 µM", "value": 0.587}, {"measurement": "relative viability", "setting": "HOP-62; first compound 0.2 µM", "value": 0.145}, {"measurement": "relative viability", "setting": "LCLC-97TM1; first compound 0.002 µM", "value": 0.949}, {"measurement": "relative viability", "setting": "LCLC-97TM1; first compound 0.006325 µM", "value": 0.915}, {"measurement": "relative viability", "setting": "LCLC-97TM1; first compound 0.02 µM", "value": 0.935}, {"measurement": "relative viability", "setting": "LCLC-97TM1; first compound 0.06325 µM", "value": 0.952}, {"measurement": "relative viability", "setting": "LCLC-97TM1; first compound 0.2 µM", "value": 0.626}, {"measurement": "relative viability", "setting": "LOU-NH91; first compound 0.002 µM", "value": 0.922}, {"measurement": "relative viability", "setting": "LOU-NH91; first compound 0.006325 µM", "value": 0.95}, {"measurement": "relative viability", "setting": "LOU-NH91; first compound 0.02 µM", "value": 0.577}, {"measurement": "relative viability", "setting": "LOU-NH91; first compound 0.06325 µM", "value": 0.378}, {"measurement": "relative viability", "setting": "LOU-NH91; first compound 0.2 µM", "value": 0.298}, {"measurement": "relative viability", "setting": "NCI-H1355; first compound 0.002 µM", "value": 1.02}, {"measurement": "relative viability", "setting": "NCI-H1355; first compound 0.006325 µM", "value": 0.912}, {"measurement": "relative viability", "setting": "NCI-H1355; first compound 0.02 µM", "value": 0.671}, {"measurement": "relative viability", "setting": "NCI-H1355; first compound 0.06325 µM", "value": 0.927}, {"measurement": "relative viability", "setting": "NCI-H1355; first compound 0.2 µM", "value": 0.622}, {"measurement": "relative viability", "setting": "NCI-H1395; first compound 0.002 µM", "value": 1.04}, {"measurement": "relative viability", "setting": "NCI-H1395; first compound 0.006325 µM", "value": 0.941}, {"measurement": "relative viability", "setting": "NCI-H1395; first compound 0.02 µM", "value": 0.805}, {"measurement": "relative viability", "setting": "NCI-H1395; first compound 0.06325 µM", "value": 0.568}, {"measurement": "relative viability", "setting": "NCI-H1395; first compound 0.2 µM", "value": 0.345}, {"measurement": "relative viability", "setting": "NCI-H1563; first compound 0.002 µM", "value": 1.01}, {"measurement": "relative viability", "setting": "NCI-H1563; first compound 0.006325 µM", "value": 0.831}, {"measurement": "relative viability", "setting": "NCI-H1563; first compound 0.02 µM", "value": 0.875}, {"measurement": "relative viability", "setting": "NCI-H1563; first compound 0.06325 µM", "value": 0.452}, {"measurement": "relative viability", "setting": "NCI-H1563; first compound 0.2 µM", "value": 0.537}, {"measurement": "relative viability", "setting": "NCI-H1651; first compound 0.002 µM", "value": 0.837}, {"measurement": "relative viability", "setting": "NCI-H1651; first compound 0.006325 µM", "value": 0.718}, {"measurement": "relative viability", "setting": "NCI-H1651; first compound 0.02 µM", "value": 0.826}, {"measurement": "relative viability", "setting": "NCI-H1651; first compound 0.06325 µM", "value": 0.309}, {"measurement": "relative viability", "setting": "NCI-H1651; first compound 0.2 µM", "value": 0.208}, {"measurement": "relative viability", "setting": "NCI-H1793; first compound 0.002 µM", "value": 0.739}, {"measurement": "relative viability", "setting": "NCI-H1793; first compound 0.006325 µM", "value": 0.892}, {"measurement": "relative viability", "setting": "NCI-H1793; first compound 0.02 µM", "value": 0.472}]}
